Laboratory results from paper PMC8466962, “Isolation and Biological Characterization of Homoisoflavanoids and the Alkylamide N-p-Coumaroyltyramine from Crinum biflorum Rottb., an Amaryllidaceae Species Collected in Senegal” (Biomolecules, 2021).

Tests used:
[1] = system: VSV-G pseudotyped HIV-1GFP; assay: VSV-G pseudotyped HIV-1GFP infectivity assay in THP-1 cells; type: cell-based; settings: for Infection (mean % HIV-1GFP+ cells): 100 μM, THP-1, MOI 1, 72 h, DMSO 8.16%; for Fold decrease in infection: 50 μM, THP-1, 72 h; for Infection levels at lower concentrations: below 50 μM (12.5, 25 μM)
α-glucosidase = α-glucosidase inhibitor assay (colorimetric kit); type: biochemical
Experimental: (§1) α-glucosidase and α-amylase inhibitor screening kits (colorimetric) were purchased from Biovision (Milpitas, CA, USA). In total, 10 mM of stock solution of all the tested compounds were dissolved in DMSO and serially diluted in the assay buffer of each kit. Experiments were performed according to the manufacturer’s protocol. Briefly, for the α-glucosidase assay, 10 µL of serially diluted compounds at the corresponding concentration ([…]–1 mM) were added into designated wells of clear 96 well-plates. Subsequently, 10 µL of the α-glycosidase enzyme was added to each well and volume was adjusted to 80 µL and plates were incubated for 15-min at room temperature in dark condition. Then, 20 µL of α-glycosidase substrate mixture was added in all wells and kinetic of reaction was measured at OD: 410 nm for 60 min at 2 min intervals by using a multiplate reader, Biotek instrument, Inc., Canada. Enzyme control (no inhibitor), background control (no enzyme), solvent control (DMSO) and inhibitor control (acarbose) were included in the plates. For the α-amylase assay, 50 µL of serially diluted compounds (3.25 µM to 500 µM) were added into a clear 96-well plate with 50 µL of assay buffer and 50 µL of α-amylase enzymes. The plate was incubated at room temperature in the dark for 10 min. Then 50 µL of the α-amylase substrate was added in all wells. The kinetic of reaction was measured at OD:410 nm for 26 min at intervals of 2 min by using a multiplate reader. Control α-amylase inhibitor was provided by the manufacturer, enzyme control, background control and solvent control were all included. Enzyme inhibition was calculated according to Zhang et al. (2014). In summary, ODs were plotted according to the time for each sample. Areas under the curve (AUC) were calculated, and enzyme inhibition was measured as 100−(AUCcompound/AUCenzyme) × 100 for each dilution of each compound.

[2] = system: acetylcholinesterase (AChE); assay: Anti-acetylcholinesterase assay (Ellman); type: biochemical
Experimental: In vitro acetylcholinesterase (AChE) activity was assessed exactly as in Ka et al. (2020) following Ellman’s colorimetric protocol with the Acetylcholinesterase Assay Kit (Abcam Inc., Boston, MA, USA). Briefly, 50 µL serial dilutions (3.9–500 µM) of compounds 1–5 were prepared in Tris-HCl pH = 7.9 buffer into designated wells of a clear 96 well-plate. A total of 5 µL of DTNB was added in each well, then 50 µL of diluted acetycholinesterase was added. The plate was incubated for 10 min in the dark. Matched concentrations of DMSO were used as a negative control. Kinetic of reaction was measured in a multiple plate reader at 410 nm in kinetic mode for 40 min at room temperature. The percentage of anti-AChE inhibition was calculated according to the following formula: 100 − [((E − S)/E) × 100], where E is the activity of the enzyme with matched concentrations of DMSO and S is the activity of the enzyme with the test sample.

in vitro [3] = settings: human, HaCaT immortalized keratinocytes
Excerpt: (§2) HeLa cervical cancer cells (CCL-2) and A431 (ATCC-CRL1555) human epidermoid carcinoma cells were from American Type Culture Co [...

in vitro [4] = settings: human, A431 epidermoid carcinoma cells
Excerpt: as §2

in vitro [5] = settings: human; for IC50 at 24 h: HeLa cervical cancer cells
Excerpt: as §2

THP-1 cells = assay: Propidium iodide cytotoxicity in THP-1 cells; settings: 72 h; for PI+ cells: 100 μM; for Dead cells: all concentrations tested (12.5-100 μM)
[6] = system: HaCaT, HeLa and A431 cells; assay: γ-H2AX foci immunofluorescence (DNA damage); type: cell-based, human; settings: 10 μM, 24 h, all tested cell lines
Experimental: Cells were seeded in 35 mm dishes on micro cover glasses (BDH) and treated with the metabolite at a concentration of 10 μM. […] Cells were permeabilized with ice-cold 0.5% Triton X-100 for 5 min and then washed with PBS. Cells were then incubated with phospho-histone H2A.X (Ser139) antibody (from Cell Signaling Technologies 9542, Boston, MA, USA) for 1 h, followed by DAPI (Sigma-Aldrich) for 3 min and washed with PBS/0.05% Tween. Coverslip was mounted with Ibidi mounting medium (Ibidi GmbH, Martinsried, Germany). Images were taken with a Zeiss confocal laser-scanning microscope Axio Observer (Zeiss, Ostfilden, Germany) (scale bar, 20 μm). A 40× objective was used and image analysis was performed using Fiji ImageJ open source software project (https://imagej.net/imaging/). All the images were taken with the same setting.

HaCaT cells = assay: DCFDA assay (ROS); type: cell-based, human; settings: for Production of reactive oxygen species (ROS): 10 µM, HaCaT cells
Experimental: N-p-coumaroyltyramine antioxidant activity was measured using 2′−7′dichlorofluorescein diacetate (DCFDA), a non-fluorescent compound permeable to the cell membrane, which can be oxidized by reactive oxygen species (ROS) giving a fluorescent compound. […] The medium was removed after 4 h and 1 mM (3%) H2O2 was added for 45 min, 1.5 and 2.0 h. Cells were washed with PBS and a fresh medium with DCFDA ([…]) was added for 45 min, then DCFDA was removed by washing in PBS and the cells were harvested. The measurement of ROS was obtained using the Sinergy H4 microplate reader (Gen5 2.07, Thermofisher, Waltham MA, USA). The fluorescence emitted from the cells treated with DCFDA was compared to the untreated cells. Trolox was used as a positive control. Values shown in the plot are mean ± SD of sixfold determinations. The mean and the standard deviation were calculated on biological triplicates using GraphPad Prism 8.0.2 software (GraphPad, San Diego, CA, USA).

[7] = system: HaCaT immortalized keratinocytes; settings: for Effect on HaCaT cell viability: incubation extended for 48 h, 0.5 to 10 μM
Excerpt: as §2

[8] = system: ovarian carcinoma, melanoma and non-small lung cancer cells; parameters: method as in PMID 23659371; settings: cited from earlier work
α-amylase = α-amylase inhibitor assay (colorimetric kit); type: biochemical; settings: concentrations 3.9-250 μM, 26 min kinetics
Experimental: as §1, with “For the α-amylase assay, 50 µL of serially diluted compounds (3.25 µM to 500 µM) were added into a clear 96-well plate with 50 µL of assay buffer and 50 µL of α-amylase enzymes. The plate was incubated at room temperature in the dark for 10 min. Then 50 µL of the α-amylase substrate was added in all wells.” left out, “Control α-amylase inhibitor was provided by the manufacturer, enzyme control, background control and solvent control were all included.” left out, “In summary, ODs were plotted according to the time for each sample.” left out

[9] = system: A431 human epidermoid carcinoma cells; settings: 0.5 to 10 μM, 24 and 48 h
Excerpt: as §2

[10] = system: HeLa cervical cancer cells; settings: 0.5 to 10 μM, 24 and 48 h
Excerpt: as §2

Dengue virus (DENV) = system: Dengue virus (DENV); parameters: method as in PMID 34152811; settings: read-out: DENV replication EC50; cited from earlier work
Zika virus (ZIKV) = system: Zika virus (ZIKV); parameters: method as in PMID 34152811; settings: read-out: ZIKV replication EC50; cited from earlier work
[11] = system: human immunodeficiency virus type 1 (HIV-1); parameters: method as in PMID 34152811; settings: cited from earlier work
[12] = increasing inhibition from 15.6 μM to 250 μM

Row | Structure (SMILES) | Infection (mean % HIV-1GFP+ cells) [1] | α-glucosidase inhibition (α-glucosidase; 1 mM) | AChE inhibition [2, 12] | IC50 at 24 h (in vitro [3]) | IC50 at 24 h (in vitro [4]) | IC50 at 24 h (in vitro [5]) | PI+ cells (THP-1 cells) | Nuclear γH2AX foci [6] | Production of reactive oxygen species (ROS) (HaCaT cells) | Fold decrease in infection [1] | Infection levels at lower concentrations [1] | Effect on HaCaT cell viability [7] | Dead cells (THP-1 cells) | also measured
1 | COc1cc2c(c(OC)c1OC)C(=O)C(Cc1ccc(O)cc1)CO2 (centres unmarked) [Compound 1, 5,6,7-trimethoxy-3-(4-hydroxybenzyl)chroman-4-one] | 3.78% | 50% | up to 20% | > 10 µM | 6 µM | 1 µM | 8.74% |  |  |  |  |  |  | viability at 48 h, 5 µM (in vitro [5]; HeLa cervical cancer cells (CCL-2)): < 20%
2 | COc1cc2c(c(OC)c1OC)C(=O)C(O)(Cc1ccc(O)cc1)CO2 (centres unmarked) [Compound 2, 3-hydroxy-5,6,7-trimethoxy-3-(4-hydroxybenzyl)chroman-4-one] | 4.03% | 50% | up to 20% | > 10 µM | > 10 µM | 4 µM | 4.15% |  |  |  |  |  |  | 
3 | COc1ccc(CC2(O)COc3cc(OC)c(OC)c(OC)c3C2=O)cc1 (centres unmarked) [Compound 3, 3-hydroxy-5,6,7-trimethoxy-3-(4-methoxybenzyl)chroman-4-one] | 2.51% | 50% |  | > 10 µM | 4 µM | 4.5 µM |  | remarkable increase | did not increase | 2.0 fold | decreased infection levels | significant reduction | 30–40% | AChE enzyme activity blocked ([2]; concentrations increased from 3.9 to 500 μM): 15–30%; Antiproliferative activity [8]: submicromolar concentration
4 | COc1ccc(CC2COc3cc(OC)c(OC)c(OC)c3C2=O)cc1 (centres unmarked) [Compound 4, 5,6,7-trimethoxy-3-(4-methoxybenzyl)chroman-4-one] | 2.76% |  | up to 20% | > 10 µM | 6.5 µM | 5.5 µM |  | remarkable increase | did not increase | 2.4 fold | decreased infection levels | significant reduction | 30–40% | 
5 | O=C(/C=C/c1ccc(O)cc1)NCCc1ccc(O)cc1 [Compound 5, (E)-N-(4-hydroxyphenethyl)-3-(4-hydroxyphenyl)acrylamide] | 2.12% |  |  |  |  |  | 5.97% |  |  | 1.6 fold |  |  |  | Antioxidant activity: ROS induced by H2O2 (HaCaT cells; 10 and 100 µM, 4 h pre-treatment, H2O2 1 mM, Trolox positive control): antioxidant activity comparable to Trolox; α-glucosidase inhibition (α-glucosidase; all concentrations tested, 0.01-1000 μM): nearly completely inhibited; IC50 (α-amylase): 40 µM; AChE inhibition ([2]; high concentrations): weakly inhibited; Effect on HaCaT cell viability at the lower concentrations ([7]; 0.5 and 1 μM): significantly increase HaCaT cell viability; Cytotoxic activity IC50, HaCaT ([7]; MTT, 24 h of incubation): Not detected; Toxicity on A431 cancer cells [9]: toxic; Toxicity on HeLa cancer cells [10]: toxic
6 | COc1cc2c(cc1O)CN(C)C[C@H]2c1ccc(O)cc1 [cherylline] |  |  |  |  |  |  |  |  |  |  |  |  |  | EC50 (Dengue virus (DENV)): 8.8 µM; EC50 (Zika virus (ZIKV)): 20.3 µM; Effect on HIV-1 infection [11]: ineffective
